Results reported in US20220306653A1, “MACROCYCLIC INHIBITORS OF MCL-1” (Janssen Pharmaceutica NV, priority 2019, published 2022).

Tested on: MOLP-8 human multiple myeloma cell line
Assay: MOLP8 Caspase-Glo 3/7 luminescent assay
Type: cell-based
Settings: 2 hours incubation; averaged values over all runs on all batches
Text: MCL-1 is a regulator of apoptosis and is highly over-expressed in tumor cells that escape cell death. The assay evaluates the cellular potency of small-molecule compounds targeting regulators of the apoptosis pathway, primarily MCL-1, Bfl-1, Bcl-2, and other proteins of the Bcl-2 family. Protein-protein inhibitors disrupting the interaction of anti-apoptotic regulators with BH3-domain proteins initiate apoptosis.
The Caspase-Glo® 3/7 Assay is a luminescent assay that measures caspase-3 and -7 activities in purified enzyme preparations or cultures of adherent or suspension cells. The assay provides a proluminescent caspase-3/7 substrate, which contains the tetrapeptide sequence DEVD. This substrate is cleaved to release aminoluciferin, a substrate of luciferase used in the production of light. Addition of the single Caspase-Glo® 3/7 Reagent in an “add-mix-measure” format results in cell lysis, followed by caspase cleavage of the substrate and generation of a “glow-type” luminescent signal.
This assay uses the MOLP-8 human multiple myeloma cell line, which is sensitive to MCL-1 inhibition.
Cell cultures were maintained between 0.2 and 2.0×10^6 cells/mL. The cells were harvested by collection in 50 mL conical tubes. The cells were then pelleted at 500 g for 5 mins before removing supernatant and resuspension in fresh pre-warmed culture medium. The cells were counted and diluted as needed.
The assay reagent was prepared by transferring the buffer solution to the substrate vial and mixing. The solution may be stored for up to 1 week at 4° C. with negligible loss of signal.
Compounds were delivered in assay-ready plates (Proxiplate) and stored at −20° C.
Assays always include 1 reference compound plate containing reference compounds. The plates were spotted with 40 nL of compounds (0.5% DMSO final in cells; serial dilution; 30 μM highest conc. ⅓ dilution, 10 doses, duplicates). The compounds were used at room temperature and 4 μL of pre-warmed media was added to all wells except column 2 and 23. The negative control was prepared by adding 1% DMSO in media. The positive control was prepared by adding the appropriate positive control compound in final concentration of 60 μM in media. The plate was prepared by adding 4 μL negative control to column 23, 4 μL positive control to column 2 and 4 μL cell suspension to all wells in the plate. The plate with cells was then incubated at 37° C. for 2 hours. The assay signal reagent is the Caspase-Glo solution described above, and 8 μL was added to all wells. The plates were then sealed and measured after 30 minutes.
The activity of a test compound was calculated as percent change in apoptosis induction as follows:
LC=median of the Low Control values • =Central Reference in Screener • =DMSO • =0% ΠC=Median of the High Control values • =Scale Reference in Screener • =30 pM of positive control • =100% apoptosis induction
% Effect (AC50)=100−(sample−LC)/(HC−LC)*100
% Control=(sample/HC)*100
% Control min=(sample−LC)/(HC−LC)*100

Row | Structure (SMILES) | AC50 [µM]
1 | Cc1c(C(=O)O)n2c3ccc(Cl)c(c13)-c1c(nn(C)c1C)CSCc1cc(n(C)n1)CSc1cc(c3ccccc3c1)OCCC2 (single isomer, unassigned) [Compound 1, 1^5-chloro-1^3,2^1,2^5,6^1-tetramethyl-1^1H,2^1H,6^1H-10-oxa-4,8-dithia-1(4,1)-indola-2(4,3),6(3,5)-dipyrazola-9(3,1)-naphthalenacyclotridecaphane-1^2-carboxylic acid] | 0.05
2 | Cc1c(C(=O)O)n2c3ccc(Cl)c(c13)-c1c(nn(C)c1C)CSCc1cc(n(C)n1)CSc1cc(c3ccccc3c1)OCCC2 (single isomer, unassigned) [Compound 2, 1^5-chloro-1^3,2^1,2^5,6^1-tetramethyl-1′H,2′H,6H-10-oxa-4,8-dithia-1(4,1)-indola-2(4,3),6(3,5)-dipyrazola-9(3,1)-naphthalenacyclotridecaphane-1^2-carboxylic acid] | 10.3
